# Experimental data from ChEMBL document CHEMBL1201862, “PubChem BioAssay data set” (2004).
#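 Interpolation was linear, between the two tested concentrations surrounding the appropriate level; five concentrations were tested over 48 hours in 96-well plates. GI50 is the concentration that inhibits growth by half.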 Calls of active or inactive are those of the source. Rule as the data show it: active = GI50 up to about 1.1 µM and inactive = higher.
# Columns and labels:
# Experiment in all cases: inhibition of tumour cell growth, NCI panel, 48 h
# M14 = tested on: M14
# OVCAR-4 = tested on: OVCAR-4
# KM12 = tested on: KM12
# SNB-75 = tested on: SNB-75
# HOP-92 = tested on: HOP-92
# OVCAR-5 = tested on: OVCAR-5
# SNB-19 = tested on: SNB-19
# BT-549 = tested on: BT-549
# MCF7 = tested on: MCF7
# A498 = tested on: A498
# COLO 205 = tested on: COLO 205
# MDA-MB-231 = tested on: MDA-MB-231
# Hs-578T = tested on: Hs-578T
# ACHN = tested on: ACHN
# SF-539 = tested on: SF-539
# HT-29 = tested on: HT-29
# HCT-116 = tested on: HCT-116
# K562 = tested on: K562
# CCRF-CEM = tested on: CCRF-CEM
# SF-295 = tested on: SF-295
# TK-10 = tested on: TK-10
# NCI-H522 = tested on: NCI-H522
# 786-0 = tested on: 786-0
# PC-3 = tested on: PC-3
# SK-OV-3 = tested on: SK-OV-3
# NCI-H460 = tested on: NCI-H460
# LOX IMVI = tested on: LOX IMVI
# HL-60 = tested on: HL-60
# NCI-H226 = tested on: NCI-H226
# SK-MEL-28 = tested on: SK-MEL-28
# OVCAR-8 = tested on: OVCAR-8
# MDA-MB-435 = tested on: MDA-MB-435
# EKVX = tested on: EKVX
# DU-145 = tested on: DU-145
# SF-268 = tested on: SF-268
# RXF 393 = tested on: RXF 393
# NCI-H23 = tested on: NCI-H23
# UACC-62 = tested on: UACC-62
# HCC 2998 = tested on: HCC 2998
# UO-31 = tested on: UO-31
# A549 = tested on: A549
# SK-MEL-5 = tested on: SK-MEL-5
# OVCAR-3 = tested on: OVCAR-3
# UACC-257 = tested on: UACC-257
# SW-620 = tested on: SW-620
# IGROV-1 = tested on: IGROV-1
# U-251 = tested on: U-251
# SR = tested on: SR
# RPMI-8226 = tested on: RPMI-8226
# MOLT-4 = tested on: MOLT-4
# SN12C = tested on: SN12C
# HOP-62 = tested on: HOP-62
# SK-MEL-2 = tested on: SK-MEL-2
# Malme-3M = tested on: Malme-3M
# NCI/ADR-RES = tested on: NCI/ADR-RES
# CAKI-1 = tested on: CAKI-1
# HCT-15 = tested on: HCT-15
# MDA-N = tested on: MDA-N
smiles,measurement,setting,value
O=C(CNc1ccccc1Cl)Nn1c(-c2ccccc2)nc2ccccc2c1=O,GI50,M14,> 10 µM (inactive)
same,GI50,OVCAR-4,26.4 µM (inactive)
same,GI50,KM12,28.6 µM (inactive)
same,GI50,SNB-75,16.8 µM (inactive)
same,GI50,HOP-92,13.4 µM (inactive)
same,GI50,OVCAR-5,> 10 µM (inactive)
same,GI50,SNB-19,> 10 µM (inactive)
same,GI50,BT-549,12.8 µM (inactive)
same,GI50,MCF7,14.8 µM (inactive)
same,GI50,A498,49.8 µM (inactive)
same,GI50,COLO 205,17.9 µM (inactive)
same,GI50,MDA-MB-231,> 10 µM (inactive)
same,GI50,Hs-578T,25.6 µM (inactive)
same,GI50,ACHN,37.4 µM (inactive)
same,GI50,SF-539,21.6 µM (inactive)
same,GI50,HT-29,> 10 µM (inactive)
same,GI50,HCT-116,25.2 µM (inactive)
same,GI50,K562,23.2 µM (inactive)
same,GI50,CCRF-CEM,13.4 µM (inactive)
same,GI50,SF-295,31.4 µM (inactive)
same,GI50,TK-10,44 µM (inactive)
same,GI50,NCI-H522,> 10 µM (inactive)
same,GI50,786-0,19.7 µM (inactive)
same,GI50,PC-3,20.7 µM (inactive)
same,GI50,SK-OV-3,38.1 µM (inactive)
same,GI50,NCI-H460,78.5 µM (inactive)
same,GI50,LOX IMVI,14.7 µM (inactive)
same,GI50,HL-60,22.4 µM (inactive)
same,GI50,NCI-H226,28.5 µM (inactive)
same,GI50,SK-MEL-28,21.2 µM (inactive)
same,GI50,OVCAR-8,40.7 µM (inactive)
same,GI50,MDA-MB-435,18.5 µM (inactive)
same,GI50,EKVX,18.6 µM (inactive)
same,GI50,DU-145,> 100 µM (inactive)
same,GI50,SF-268,30.1 µM (inactive)
same,GI50,RXF 393,20.3 µM (inactive)
same,GI50,NCI-H23,16.4 µM (inactive)
same,GI50,UACC-62,> 10 µM (inactive)
same,GI50,HCC 2998,19.5 µM (inactive)
same,GI50,UO-31,47.1 µM (inactive)
same,GI50,A549,44.8 µM (inactive)
same,GI50,SK-MEL-5,10.2 µM (inactive)
same,GI50,OVCAR-3,23.1 µM (inactive)
same,GI50,UACC-257,50.6 µM (inactive)
same,GI50,SW-620,19.8 µM (inactive)
same,GI50,IGROV-1,23.7 µM (inactive)
same,GI50,U-251,17.4 µM (inactive)
same,GI50,SR,23.4 µM (inactive)
same,GI50,RPMI-8226,28.7 µM (inactive)
same,GI50,MOLT-4,13.2 µM (inactive)
same,GI50,SN12C,34.4 µM (inactive)
same,GI50,HOP-62,27.9 µM (inactive)
CC(C(=O)O)c1ccc(-n2nnc3c(=O)[nH][nH]c(=O)c32)cc1 (configuration not stated),GI50,M14,> 100 µM (inactive)
same,GI50,OVCAR-4,> 100 µM (inactive)
same,GI50,KM12,> 100 µM (inactive)
same,GI50,OVCAR-5,> 100 µM (inactive)
same,GI50,SK-MEL-2,> 100 µM (inactive)
same,GI50,SNB-19,> 100 µM (inactive)
same,GI50,BT-549,> 100 µM (inactive)
same,GI50,MCF7,> 100 µM (inactive)
same,GI50,Malme-3M,> 100 µM (inactive)
same,GI50,COLO 205,> 100 µM (inactive)
same,GI50,MDA-MB-231,> 100 µM (inactive)
same,GI50,ACHN,> 100 µM (inactive)
same,GI50,HCT-116,> 100 µM (inactive)
same,GI50,K562,> 100 µM (inactive)
same,GI50,CCRF-CEM,> 100 µM (inactive)
same,GI50,SF-295,> 100 µM (inactive)
same,GI50,TK-10,> 100 µM (inactive)
same,GI50,PC-3,> 100 µM (inactive)
same,GI50,NCI-H460,> 100 µM (inactive)
same,GI50,LOX IMVI,> 100 µM (inactive)
same,GI50,HL-60,> 100 µM (inactive)
same,GI50,NCI/ADR-RES,> 100 µM (inactive)
same,GI50,SK-MEL-28,> 100 µM (inactive)
same,GI50,OVCAR-8,> 100 µM (inactive)
same,GI50,MDA-MB-435,> 100 µM (inactive)
same,GI50,EKVX,> 100 µM (inactive)
same,GI50,DU-145,> 100 µM (inactive)
same,GI50,NCI-H23,> 100 µM (inactive)
same,GI50,HCC 2998,> 100 µM (inactive)
same,GI50,UO-31,> 100 µM (inactive)
same,GI50,CAKI-1,> 100 µM (inactive)
same,GI50,A549,> 100 µM (inactive)
same,GI50,SK-MEL-5,> 100 µM (inactive)
same,GI50,OVCAR-3,> 100 µM (inactive)
same,GI50,UACC-257,> 100 µM (inactive)
same,GI50,U-251,> 100 µM (inactive)
same,GI50,HCT-15,> 100 µM
same,GI50,SR,> 100 µM (inactive)
same,GI50,MDA-N,> 100 µM (inactive)
same,GI50,RPMI-8226,> 100 µM (inactive)
same,GI50,MOLT-4,> 100 µM (inactive)
same,GI50,SN12C,> 100 µM (inactive)
same,GI50,HOP-62,> 100 µM (inactive)
Nc1ccc(-c2cssc2=S)cc1,GI50,M14,75.7 µM (inactive)
same,GI50,OVCAR-4,49.1 µM (inactive)
same,GI50,KM12,42 µM (inactive)
same,GI50,HOP-92,56.2 µM (inactive)
same,GI50,OVCAR-5,> 100 µM (inactive)
same,GI50,SK-MEL-2,27.1 µM (inactive)
same,GI50,SNB-19,> 100 µM (inactive)
same,GI50,BT-549,36.1 µM (inactive)
same,GI50,MCF7,52.1 µM (inactive)
same,GI50,Malme-3M,34 µM (inactive)
same,GI50,COLO 205,42.2 µM (inactive)
same,GI50,MDA-MB-231,39.3 µM (inactive)
same,GI50,Hs-578T,36.3 µM (inactive)
same,GI50,ACHN,38.1 µM (inactive)
same,GI50,SF-539,52.8 µM (inactive)
same,GI50,HT-29,51.9 µM (inactive)
same,GI50,HCT-116,42 µM (inactive)
same,GI50,K562,3.21 µM (inactive)
same,GI50,SF-295,33.3 µM (inactive)
same,GI50,TK-10,40.6 µM (inactive)
same,GI50,NCI-H522,26.9 µM (inactive)
same,GI50,786-0,49 µM (inactive)
same,GI50,PC-3,41.9 µM (inactive)
same,GI50,SK-OV-3,44.6 µM (inactive)
same,GI50,NCI-H460,33.9 µM (inactive)
same,GI50,LOX IMVI,41.1 µM (inactive)
same,GI50,HL-60,18.6 µM (inactive)
same,GI50,NCI-H226,56.5 µM (inactive)
same,GI50,NCI/ADR-RES,41.9 µM (inactive)
same,GI50,SK-MEL-28,49.7 µM (inactive)
same,GI50,OVCAR-8,45.7 µM (inactive)
same,GI50,MDA-MB-435,35.1 µM (inactive)
same,GI50,EKVX,41.6 µM (inactive)
same,GI50,SF-268,42.7 µM (inactive)
same,GI50,RXF 393,29.8 µM (inactive)
same,GI50,UACC-62,26.9 µM (inactive)
same,GI50,HCC 2998,29.2 µM (inactive)
same,GI50,UO-31,35.9 µM (inactive)
same,GI50,CAKI-1,37.9 µM (inactive)
same,GI50,A549,50.6 µM (inactive)
same,GI50,SK-MEL-5,32.8 µM (inactive)
same,GI50,UACC-257,59.6 µM (inactive)
same,GI50,SW-620,54.8 µM (inactive)
same,GI50,IGROV-1,50.7 µM (inactive)
same,GI50,U-251,40.7 µM (inactive)
same,GI50,HCT-15,45.5 µM
same,GI50,SR,2.64 µM (inactive)
same,GI50,MDA-N,30.4 µM (inactive)
same,GI50,RPMI-8226,0.836 µM (active)
same,GI50,MOLT-4,1.17 µM (inactive)
same,GI50,SN12C,31.1 µM (inactive)
same,GI50,HOP-62,42.1 µM (inactive)
